Like-named read-outs stand apart in the source and are kept apart here.
Key:
Type in all cases: biochemical
MMP1 = biological target: T1, MMP1 (Homo sapiens, UniProt P03956); assay: MMP-1 colorimetric inhibition assay (Enzo kit BML-AK404); details: thiopeptide substrate, absorbance 415 nm; read-out: MMP 1 IC50 class
T1 sequence (P03956 100-269 limits assumed): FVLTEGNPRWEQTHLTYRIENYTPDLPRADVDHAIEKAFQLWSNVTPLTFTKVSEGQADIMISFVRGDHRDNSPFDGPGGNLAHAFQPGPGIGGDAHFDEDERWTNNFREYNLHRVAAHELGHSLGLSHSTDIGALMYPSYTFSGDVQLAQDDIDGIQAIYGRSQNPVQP
Procedure, shortened: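 Colorimetric kit run per manufacturer protocol. MMP-1 cleaves a thiopeptide substrate (Ac-PLG-[2-mercapto-4-methylpentanoyl]-LG-OC2H5); released thiol reacts with DTNB, monitored at 415 nm. IC50 (nM) from inhibition curves of normalized values.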

MMP2 = biological target: T2, MMP2 (Homo sapiens, UniProt P08253); assay: MMP-2 colorimetric inhibition assay (Enzo kit BML-AK408); details: thiopeptide substrate, absorbance 415 nm; read-out: MMP 2 IC50 class
T2 sequence (P08253 110-660): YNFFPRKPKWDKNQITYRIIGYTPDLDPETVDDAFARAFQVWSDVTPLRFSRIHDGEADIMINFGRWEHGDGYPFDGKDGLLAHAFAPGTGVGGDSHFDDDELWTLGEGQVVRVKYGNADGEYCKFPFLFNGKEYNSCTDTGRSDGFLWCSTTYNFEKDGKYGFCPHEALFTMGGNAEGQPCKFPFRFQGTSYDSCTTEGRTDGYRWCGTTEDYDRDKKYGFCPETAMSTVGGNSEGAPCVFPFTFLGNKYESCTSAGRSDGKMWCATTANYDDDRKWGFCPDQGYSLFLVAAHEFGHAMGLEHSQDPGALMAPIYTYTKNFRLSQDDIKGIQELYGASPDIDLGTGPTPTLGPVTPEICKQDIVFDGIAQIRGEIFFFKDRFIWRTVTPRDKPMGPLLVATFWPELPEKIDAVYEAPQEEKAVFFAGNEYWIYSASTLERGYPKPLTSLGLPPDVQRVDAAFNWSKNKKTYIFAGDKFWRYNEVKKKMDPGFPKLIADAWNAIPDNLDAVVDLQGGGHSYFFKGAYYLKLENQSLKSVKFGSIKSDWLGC
Procedure, shortened: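 Cleavage of the thiopeptide Ac-PLG-[2-mercapto-4-methylpentanoyl]-LG-OC2H5 releases a sulfhydryl that reacts with DTNB, read at 415 nm per the kit protocol. IC50 values (nM) come from inhibition curves of normalized data.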

MMP9 = MMP9 (Homo sapiens, UniProt P14780); assay: MMP-9 colorimetric inhibition assay (Enzo kit BML-AK410); details: thiopeptide substrate, absorbance 415 nm; read-out: MMP 9 IC50 class
MMP9, sequence (P14780 94-707): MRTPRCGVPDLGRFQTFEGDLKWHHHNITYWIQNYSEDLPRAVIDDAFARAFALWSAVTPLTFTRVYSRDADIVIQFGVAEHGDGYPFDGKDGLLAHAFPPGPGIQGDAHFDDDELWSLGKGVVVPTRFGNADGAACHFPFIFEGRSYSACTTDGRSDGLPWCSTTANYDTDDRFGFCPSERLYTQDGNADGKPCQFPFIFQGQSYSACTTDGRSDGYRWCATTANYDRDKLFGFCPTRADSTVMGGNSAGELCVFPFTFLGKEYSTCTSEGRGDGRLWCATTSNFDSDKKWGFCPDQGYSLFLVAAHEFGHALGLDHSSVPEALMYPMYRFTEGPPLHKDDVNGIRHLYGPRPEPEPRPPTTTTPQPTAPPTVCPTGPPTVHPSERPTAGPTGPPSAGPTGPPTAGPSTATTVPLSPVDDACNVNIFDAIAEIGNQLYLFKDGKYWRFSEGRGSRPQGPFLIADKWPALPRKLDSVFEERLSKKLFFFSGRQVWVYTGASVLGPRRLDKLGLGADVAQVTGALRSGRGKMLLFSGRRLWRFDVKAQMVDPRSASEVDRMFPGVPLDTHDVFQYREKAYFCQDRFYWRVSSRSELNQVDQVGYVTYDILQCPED
Procedure, shortened: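 Colorimetric thioester-substrate assay: hydrolysis of Ac-PLG-[2-mercapto-4-methylpentanoyl]-LG-OC2H5 frees a thiol that reacts with DTNB, read at 415 nm. Run per kit protocol. IC50 (nM) taken from inhibition curves of normalized values.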

MMP13 = biological target: T3, MMP13 (Homo sapiens, UniProt P45452); assay: MMP-13 colorimetric inhibition assay (Enzo kit BML-AK412); details: thiopeptide substrate, absorbance 415 nm; read-out: MMP 13 IC50 class
T3 construct: purchased Enzo Life Sciences, Inc. BML-AK412
Procedure, shortened: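 Thiopeptide chromogenic substrate (Ac-PLG-[2-mercapto-4-methylpentanoyl]-LG-OC2H5); MMP-13 hydrolysis of the thioester yields a thiol that reacts with DTNB, read at 415 nm. IC50 values (nM) derived from inhibition curves of normalized data.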

ADAM17 (TACE) = ADAM17 (TACE) (Homo sapiens, UniProt P78536); assay: TACE fluorometric inhibition assay (Enzo kit BML-AK310); details: quenched fluorogenic peptide, ex/em 320/420 nm; read-out: TACE IC50 class
ADAM17 (TACE), sequence (P78536 215-477 limits assumed): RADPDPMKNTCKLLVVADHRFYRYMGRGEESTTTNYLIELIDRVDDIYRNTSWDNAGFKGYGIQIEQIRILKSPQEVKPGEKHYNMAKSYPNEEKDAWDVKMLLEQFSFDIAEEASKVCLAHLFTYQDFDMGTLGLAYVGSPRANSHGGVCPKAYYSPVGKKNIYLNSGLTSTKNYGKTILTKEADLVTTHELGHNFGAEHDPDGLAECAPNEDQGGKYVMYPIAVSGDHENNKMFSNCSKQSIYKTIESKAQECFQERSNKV
Procedure, shortened: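 Kit-based TACE assay run per manufacturer's protocol, using quenched fluorogenic peptide Mca-PLAQAV-Dpa-RSSSR-NH2 whose cleavage raises Mca fluorescence. Signal read at ex/em 320/420 nm; IC50 (nM) derived from inhibition curves of normalized values.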

ADAM10 = biological target: T4, ADAM10 (Homo sapiens, UniProt O14672); assay: SensoLyte 520 ADAM10 fluorometric activity assay (AnaSpec AS-72226)
T4 construct: purchased AnaSpec, Inc. AS-72226
T4 sequence (O14672 214-748): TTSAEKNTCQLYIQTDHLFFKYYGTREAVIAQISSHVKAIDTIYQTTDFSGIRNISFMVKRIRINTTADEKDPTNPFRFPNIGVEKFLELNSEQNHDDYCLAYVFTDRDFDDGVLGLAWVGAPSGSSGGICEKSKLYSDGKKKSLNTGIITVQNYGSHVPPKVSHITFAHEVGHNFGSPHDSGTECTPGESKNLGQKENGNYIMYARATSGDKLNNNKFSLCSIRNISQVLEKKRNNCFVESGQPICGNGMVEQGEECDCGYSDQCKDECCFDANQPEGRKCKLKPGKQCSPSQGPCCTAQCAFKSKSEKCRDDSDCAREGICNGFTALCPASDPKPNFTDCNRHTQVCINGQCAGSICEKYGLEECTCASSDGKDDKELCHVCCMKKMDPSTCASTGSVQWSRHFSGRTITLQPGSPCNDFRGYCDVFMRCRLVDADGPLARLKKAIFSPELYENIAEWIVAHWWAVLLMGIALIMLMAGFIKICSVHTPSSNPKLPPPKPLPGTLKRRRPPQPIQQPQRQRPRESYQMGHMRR
Method: The inhibitory activities of the compounds of the invention were assessed in 96-well microplate format using MMP1, MMP2, MMP9 and MMP13 colorimetric assay kits and TACE fluorometric assay kit from Enzo Life Sciences, Inc. The inhibitory effect of the compounds of the invention on ADAM10 activity were evaluated in 96-well microplate format using fluorometric assay from AnaSpec, Inc.
SensoLyte® 520 ADAM10 Activity Assay Kit (catalog #AS-72226) is a complete assay system designed to screen ADAM10 inhibitors using FRET-based peptide substrate containing the 5-FAM/QXL™ 520 fluorophore/quencher pair. The fluorescence of 5-FAM is quenched by QXL™ 520 and recovered upon cleavage of the peptide by active ADAM10.
The inhibitory activity of the compounds of the invention against ADAM10 was tested according to the manufacturer's assay protocol and the fluorescence was monitored at excitation/emission wavelengths=495 nm/520 nm using Tecan Infinite® 200 Pro F Nano^+ microplate reader.
The normalized values were analyzed using GraphPadPrism 9 for Windows (GraphPad Software, San Diego, CA, USA) software by plotting inhibition curves and determining the IC50 values (in nM).

[1] = FRET peptide substrate, ex/em 495/520 nm, read-out: ADAM 10 IC50 class

SMILES | IC50 (MMP1) [µM] | IC50 (MMP2) [µM] | IC50 (MMP9) [µM] | IC50 (MMP13) [µM] | IC50 (ADAM17 (TACE)) [µM] | IC50 (ADAM10; [1]) [µM] | IC50 (ADAM10) [µM]
COCCOC(=O)N1[C@@H]2CC[C@H]1[C@H](C(=O)NO)N(S(=O)(=O)c1ccc(Oc3ccc(OC(C)(C)C)cc3)nc1)C2 [Example 31, 2-methoxyethyl (1S,2R,5R)-3-((6-(4-(tert-butoxy)-phenoxy)pyridin-3-yl)sulfonyl)-2-(hydroxycarbamoyl)-3,8-diazabicyclo-[3.2.1]octane-8-carboxylate] | > 10 | < 0.05 | < 0.05 | < 0.05 | > 10 | > 10 | –
COCCOC(=O)N1[C@@H]2CC[C@H]1[C@H](C(=O)NO)N(S(=O)(=O)c1ccc(Oc3ccc(C)cc3)nc1)C2 [Example 32, 2-methoxyethyl (1S,2R,5R)-2-(hydroxycarbamoyl)-3-((6-(p-tolyloxy)-pyridin-3-yl)-sulfonyl)-3,8-diazabicyclo[3.2.1]-octane-8-carboxylate] | 0.05 to 1 | < 0.05 | < 0.05 | < 0.05 | 1 to 10 | > 10 | –
CCc1ccc(Oc2ccc(S(=O)(=O)N3C[C@H]4CC[C@@H]([C@@H]3C(=O)NO)N4C(=O)OCCOC)cn2)cc1 [Example 33, 2-methoxyethyl (1S,2R,5R)-3-((6-(4-ethylphenoxy)pyridin-3-yl)sulfonyl)-2-(hydroxycarbamoyl)-3,8-diazabicyclo-[3.2.1]octane-8-carboxylate] | 1 to 10 | < 0.05 | < 0.05 | < 0.05 | 1 to 10 | > 10 | –
COCCOC(=O)N1[C@@H]2CC[C@H]1[C@H](C(=O)NO)N(S(=O)(=O)c1ccc(Oc3ccc(OC)c(F)c3)nc1)C2 [Example 34, 2-methoxyethyl (1S,2R,5R)-3-((6-(3-fluoro-4-methoxy-phenoxy)pyridin-3-yl)sulfonyl)-2-(hydroxycarbamoyl)-3,8-diaza-bicyclo[3.2.1]octane-8-carboxylate] | 1 to 10 | < 0.05 | < 0.05 | < 0.05 | 1 to 10 | 1 to 10 | –
COCCOC(=O)N1[C@@H]2CC[C@H]1[C@H](C(=O)NO)N(S(=O)(=O)c1ccc(Oc3cnn(C)c3)nc1)C2 [Example 36, 2-methoxyethyl (1S,2R,5R)-2-(hydroxycarbamoyl)-3-((6-((1-methyl-1H-pyrazol-4-yl)oxy)-pyridin-3-yl)-sulfonyl)-3,8-diazabicyclo[3.2.1]-octane-8-carboxylate] | < 0.05 | < 0.05 | < 0.05 | < 0.05 | 0.05 to 1 | 1 to 10 | –
COCCOC(=O)N1[C@@H]2CC[C@H]1[C@H](C(=O)NO)N(S(=O)(=O)c1ccc(Oc3cnn(-c4ccccc4)c3)nc1)C2 [Example 39, 2-methoxyethyl (1S,2R,5R)-2-(hydroxycarbamoyl)-3-((6-((1-phenyl-1H-pyrazol-4-yl)oxy)-pyridin-3-yl)sulfonyl)-3,8-diazabicyclo-[3.2.1]octane-8-carboxylate] | 0.05 to 1 | < 0.05 | < 0.05 | < 0.05 | 0.05 to 1 | > 10 | –
COCCOC(=O)N1[C@@H]2CC[C@H]1[C@H](C(=O)NO)N(S(=O)(=O)c1ccc(Oc3cnn(C)c3)c(F)c1)C2 [Example 41, 2-methoxyethyl (1S,2R,5R)-3-((3-fluoro-4-((1-methyl-1H-pyrazol-4-yl)oxy)phenyl)sulfonyl)-2-(hydroxycarbamoyl)-3,8-diazabicyclo[3.2.1]octane-8-carboxylate] | < 0.05 | < 0.05 | < 0.05 | < 0.05 | 0.05 to 1 | 0.05 to 1 | –
COCCOC(=O)N1[C@@H]2CC[C@H]1[C@H](C(=O)NO)N(S(=O)(=O)N1CCC(Oc3ccc(Cl)cc3)CC1)C2 [Example 44, (1S,2R,5R)-2-methoxyethyl 3-((4-(4-chlorophenoxy)piperidin-1-yl)sulfonyl)-2-(hydroxycarbamoyl)-3,8-diazabicyclo[3.2.1]octane-8-carboxylate] | 0.05 to 1 | < 0.05 | < 0.05 | < 0.05 | < 0.05 | – | 0.05 to 1

— patent US20250215010A1, “DIAZABICYCLOOCTANE DERIVATIVES USEFUL AS MATRIX METALLOPROTEINASE INHIBITORS” (VASA THERAPEUTICS SPOLKA Z OGRANICZONA ODPOWIEDZIALNOSCIA, priority 2022, published 2025)
